This note sets out measurements from patent US6518302B1, “Remedies” (Takara Shuzo Co., Ltd., priority 1999, dated 2003).

Like-named read-outs stand apart in the source and are kept apart here.

The test system of assay [1] is heme oxygenase 1 protein in RAW264.7 cells. Description: Heme oxygenase 1 induction (Western blot). The format is cell-based. Details: key: − represents no band observed; increase in the intensity of the band is represented as follows: +−<+<++; increase in the intensity of the band is represented as follows: +−<+<++; increase in the intensity of the band is represented as follows: +−<+<++. Particulars: 12 hours, positive control: 5 μl of 3 mM solution in dimethyl sulfoxide added to 5 ml. The protocol: RAW264.7 cells (ATCC TIB 71) were suspended in Dulbecco's modified Eagle's medium (Bio Whittaker, 12-604F) containing 10% fetal calf serum (Gibco) at a concentration of 3×10^5 cells/ml. 5 ml of the suspension was added to each well of a 6-well microtiter plate and the plate was incubated at 37° C. overnight in the presence of 5% CO2. 50 μl of a solution containing the compound (11) or the compound (14) at a concentration of 10 mM or 5 mM in water, 5 μl of a solution containing the compound (7) at a concentration of 50 mM or 25 mM in dimethyl sulfoxide, or 5 μl of a solution containing the compound (17) at a concentration of 100 mM or 50 mM in dimethyl sulfoxide was added to the well. The plate was incubated for 12 hours. A positive control for heme oxygenase 1 induction in which 5 μl of 3 mM solution of 15-deoxy-Δ12,14 prostaglandin J2 (Cayman Chemical, 18570) in dimethyl sulfoxide was added, and a negative control in which water was added were provided. The cells were recovered by detaching the cells from the plate using a scraper and suspended in 0.1 M tris-HCl buffer (pH 7.5) containing 0.05 mM pepstatin A (Sigma, P5318), 0.2 mM leupeptin (Sigma, L2884), 1 mM phenylmethylsulfonyl fluoride (Nacalai Tesque, 273-27), 10 mM ethylenediaminetetraacetic acid disodium salt and 0.1% Triton X-100. A supernatant obtained by centrifuging the suspension after freezing and thawing was used as a protein fraction. The content of protein in the protein fraction was determined using Micro BCA Protein Assay Reagent (a product of Pierce sold by Takara Shuzo, P7411). A sample from the protein fraction prepared as described above was mixed with an equal volume of 0.125 M tris-hydrochloride buffer (pH 6.8) containing 4% sodium lauryl sulfate (SDS), 2% 2-mercaptoethanol, 0.001% Bromophenol Blue and 20% glycerol. After treatment at 100° C. for 5 minutes, a portion corresponding to 10 μg of protein was loaded on 12.5% SDS-polyacrylamide gel and electrophoresed at a constant current of 20 mA. After electrophoresis, the gel was transferred to a PVDF membrane (Millipore, IPVH000 10) at a constant voltage of 15 V for 25 minutes using a blotting buffer (containing 48 mM tris, 39 mM glycine, 20% methanol and 0.0375% SDS) and Trans-Blot SD Cell Semi-Dry blotting apparatus (Bio-Rad) according to the attached protocol. After transferring, the PVDF membrane was blocked in a solution of Block Ace (Dainippon Pharmaceutical, UK-B25) at 4 C overnight. After blocking, the membrane washed three times in phosphate buffered saline containing 0.1% Tween 20 for 15 minutes with gentle shaking. The membrane was reacted in phosphate buffered saline containing 10% Block Ace, 0.1% Tween 20 and 200 ng/ml of anti-heme oxygenase 1 antibody (N-19; Santa Cruz, sc-7696) at room temperature for 1 hour with gentle shaking, and then washed three times in phosphate buffered saline containing 0.1% Tween 20 for 15 minutes with gentle shaking. The membrane was reacted in phosphate buffered saline containing 10% Block Ace, 0.1% Tween 20 and 0.1% peroxidase-labeled rabbit anti-goat IgG (H+L) antibody (Zymed, 61-1620) at room temperature for 1 hour with gentle shaking, and then washed five times in phosphate buffered saline containing 0.1% Tween 20 for 15 minutes with gentle shaking. The PVDF membrane was stained using Western Blot Chemiluminescence Reagent Plus (a product of NEN Life Science Products sold by Daiichi Pure Chemicals, NEL103) according to the attached protocol and exposed to an X-ray film (Kodak, CAT165 1454). After exposure, the film was developed using FPM800 (Fuji Film).
The intensity of the band depended on the concentration of the sample. In the table, the intensity of the band for heme oxygenase 1 protein is expressed by the mark +. Specifically, − represents no band observed, and increase in the intensity of the band is represented as follows: +−<+<++.
In general terms: In western blotting, separated proteins are transferred to a membrane and probed.

In assay [2] the test system is Human promyelocytic leukemia HL-60 cells. Description: Antiproliferation activity against HL-60 cells (MTT method). Conditions: 48 hour incubation. It counts as cell-based. Here is the method:
Human promyelocytic leukemia HL-60 cells (ATCC CCL-240) were cultured at 37° C. in RPMI 1640 medium (Gibco) containing 10% of fetal calf serum (JRH Bioscience) which had been treated at 56° C. for 30 minutes, and suspended in the same medium at a concentration of 5000 cells/90 μl. Each 90 μl portion of the suspension was distributed into each well of a 96-well plate (Falcon). To the suspension in each well was added 10 μl of one the following samples, and incubated at 37° C. in the presence of 5% CO2. The samples were 2-, 4-, 8-, 16-, 32-, 64- or 128-dilutions of filter-sterilized 200 mM aqueous solution of the compound (2) obtained in Example 1, 50 mM aqueous solution of the compound (7), 50 mM aqueous solution of the compound (9), 100 mM aqueous solution of the compound (11), 100 mM aqueous solution of the compound (14), 20 mM aqueous solution of the compound (17), 12.5 mM aqueous solution of the compound (19) or 12.5 mM aqueous solution of the compound (21) with sterile water, as well as water. After 48 hour from the initiation of the incubation, the numbers of viable cells calculated based on the absorbance measured according to the MTT method as described in “Apoptosis Jikken Protocol” (Syuzyun-sha, Seiichi Tanuma, ed., pp. 156 (1994)) were compared each other.

The test system of assay [3] is HL-60 (ATCC CCL-240) cells. The assay is described as follows: Viability of HL-60 cells by Trypan Blue staining. Conditions: Homo sapiens, read-out: Viability50, concentration that results in a viability of 50%. The format is cell-based. The protocol: HL-60 (ATCC CCL-240) cells were cultured at 37° C. in RPMI 1640 medium (Bio Whittaker) containing 10% fetal calf serum (JRH) which had been treated at 56° C. for 30 minutes and suspended in RPMI 1640 medium at a concentration of 2.5×10^5 cells/4.5 ml.
[…] each of aqueous solutions of the compound (2) at a concentration of 10, 50 or 100 mM, the compound (7) at a concentration of 500, 1000 or 1500 μM, the compound (9) at a concentration of 750, 1500 or 3000 μM, the compound (11) at a concentration of 750, 1500 or 3000 μM, or the compound (14) at a concentration of 750, 1500 or 3000 μM was added to 4.5 ml of the suspension. The mixtures were incubated at 37° C. for 24 hours in the presence of 5% CO2.
A portion of the cells cultured for 24 or 48 hours as described in Example 4 was stained with 0.4% Trypan Blue and examined under an optical microscope. The number of viable cells which were not stained and the number of dead cells which were stained blue were counted. The concentration of each of the compounds (2), (7), (9), (11) and (14) that results in a viability of 50% (Viability50 mM) was determined.

Assay [4] deals with HL-60 cells (ATCC CCL-240). The assay is described as follows: Proliferation of HL-60 cells with or without hydroxyurea G1 arrest (WST-1). It counts as cell-based, Human. Conditions: 48 hours. The protocol: HL-60 cells (ATCC CCL-240) were suspended in RPMI 1640 medium (Bio Whittaker, 12-702F) containing 10% fetal calf serum (Gibco) and 100 μM hydroxyurea at a concentration of 5×10^5 cells/ml. 20 ml of the suspension was added to a 10-cm Petri dish. The dish was incubated at 37° C. overnight in the presence of 5% CO2 to make the cells arrest at G1 phase. The cells were collected by centrifugation and resuspended in RPMI 1640 medium containing 10% fetal calf serum (Gibco) and 100 μM hydroxyurea at a concentration of 5×10^5 cells/ml. 5 ml of the suspension was added to each well of a 6-well microtiter plate. On the other hand, as cells without the treatment with hydroxyurea, HL-60 cells were suspended in RPMI 1640 medium containing 10% fetal calf serum (Gibco) at a concentration of 1×10^5 cells/ml. 5 ml of the suspension was added to each well of a 6-well microtiter plate. 50 μl of a solution containing DGE at a concentration of 30, 22.5, 15 or 7.5 mM in water, 25 μl of a solution containing the compound (7) at a concentration of 60, 45, 30 or 15 mM in dimethyl sulfoxide, or 25 μl of a solution containing the compound (17) at a concentration of 100, 75, 50 or 25 mM in dimethyl sulfoxide was added to the well containing the cells treated with hydroxyurea. 50 μl of a solution containing DGE at a concentration of 8, 6, 4 or 2 mM in water, 25 μl of a solution containing the compound (7) at a concentration of 30, 22.5, 15 or 7.5 mM in dimethyl sulfoxide, or 25 μl of a solution containing the compound (17) at a concentration of 80, 60, 40 or 20 mM in dimethyl sulfoxide was added to the well containing the cells without the treatment with hydroxyurea. The plate was incubated for additional 48 hours. Cells collected by centrifuging the culture were suspended in 5 ml of fresh RPMI 1640 medium containing 10% fetal calf serum (Gibco). 100 μl of the suspension was used for measuring viable cell number using Premix WST-1 Cell Proliferation Assay System (Takara Shuzo, MK400).
For each of the samples, the concentration at which 50% of the proliferation is inhibited (IC50) for the cells treated with hydroxyurea was higher than that for the cells without the treatment with hydroxyurea. Table 3 summarizes IC50 (μM) for each of the samples. […] Since most of cells in a living body are arrested at G1 phase, it is considered that DGE and R-AhGal compounds (precursors of DGE) are agents less toxic to a living body.

With `CCCCC/C=C/C=C1/C(=O)C=C[C@@H]1C/C=C\CCCC(=O)O` [15-deoxy-Δ12,14 prostaglandin J2, reference compound], the “Intensity of band for heme oxygenase 1 protein” value in assay [1] was “+”.
For the compound `CC(=O)OCC1OC(OC2C(O)COC2C(O)C(O)O)C(OC(C)=O)C(OC(C)=O)C1OC(C)=O` [Compound (9), 4-O-(β-D-2,3,4,6-tetra-O-acetylgalactopyranosyl)-3,6-anhydro-D-galactose], the “antiproliferation activity against HL-60 cells” value in assay [2] is “exhibited antiproliferation activities”. Also, the IC50 in assay [2] (Homo sapiens, HL-60 cells, read-out: IC50, concentration at which 50% of the proliferation is inhibited) turned out to be 113 µM; in assay [3] (24 hours) it was 17200 µM; in assay [3] (48 hours), 189 µM.
Regarding `O=C1C=CC(CO)OC1O` [DGE, L-glycero-1,5-epoxy-1αβ,6-dihydroxy-cis-hex-3-en-2-one, reference compound], the IC50 turned out to be 101 µM in assay [4] (HL-60 cells arrested at G1 phase with 100 μM hydroxyurea, read-out: IC50, Cells treated with hydroxyurea) and 49.5 µM in assay [4] (HL-60 cells, read-out: IC50, Cells without treatment with hydroxyurea).
